# Test results taken from patent publication US6696461B2, “Tricyclic imidazopyridines” (Altana Pharma AG, priority 2000, dated 2004).
# Tested on: pentagastrin-stimulated acid secretion of the perfused rat stomach
# Assay: Secretion-inhibiting action on the perfused rat stomach (pentagastrin-stimulated acid secretion, i.v. administration in vivo)
# Details: anesthetized CD rat, dose 3 μmol/kg i.v.
# Source text: Testing of the Secretion-inhibiting Action on the Perfused Rat Stomach
# In Table A which follows, the influence of the compounds according to the invention on the pentagastrin-stimulated acid secretion of the perfused rat stomach after intravenous administration in vivo is shown.
# The abdomen of anesthetized rats (CD rat, female, 200-250 g; 1.5 g/kg i.m. urethane) was opened after tracheotomy by a median upper abdominal incision and a PVC catheter was fixed transorally in the esophagus and another via the pylorus such that the ends of the tube just projected into the gastric lumen. The catheter leading from the pylorus led outward into the right abdominal wall through a side opening.
# After thorough rinsing (about 50-100 ml), warm (37° C.) physiological NaCl solution was continuously passed through the stomach (0.5 ml/min, pH 6.8-6.9; Braun-Unita 1). The pH (pH meter 632, glass electrode EA 147; φ=5 mm, Metrohm) and, by titration with a freshly prepared 0.01N NaOH solution to pH 7 (Dosimat 665 Metrohm), the secreted HCl were determined in the effluent in each case collected at an interval of 15 minutes.
# The gastric secretion was stimulated by continuous infusion of […] (=1.65 ml/h) of i.v. pentagastrin (left femoral vein) about 30 min after the end of the operation (i.e. after determination of 2 preliminary fractions). […]
row,SMILES,Inhibition of acid secretion [%]
1,"COCc1cn2c(C)c(C)nc2c2c1[C@H](OC)[C@H](O)[C@@H](c1ccccc1)N2 [Example 17, (7S,8R,9R)-8-Hydroxy-7-methoxy-6-methoxymethyl-2,3-dimethyl-9-phenyl-7,8,9,10-tetrahydroimidazo[1,2-h][1,7]naphthyridine]",100

# Tested on: not given
# Assay: not given
# Details: not given
row,SMILES,melting point
1,"COCc1cn2c(C)c(C)nc2c2c1[C@H](OC)[C@H](O)[C@@H](c1ccccc1)N2 [Example 17, (7S,8R,9R)-8-Hydroxy-7-methoxy-6-methoxymethyl-2,3-dimethyl-9-phenyl-7,8,9,10-tetrahydroimidazo[1,2-h][1,7]naphthyridine]",126 to 129 °C (dec.)
2,"CCO[C@H]1c2c(COC)cn3c(C)c(C)nc3c2N[C@H](c2ccccc2)[C@H]1O [Example 22, (7S,8R,9R)-8-Hydroxy-7-ethoxy-6-methoxymethyl-2,3-dimethyl-9-phenyl-7,8,9,10-tetrahydroimidazo[1,2-h][1,7]naphthyridine]",163 to 164 °C (dec.)
3,"COCCO[C@H]1c2c(COC)cn3c(C)c(C)nc3c2N[C@H](c2ccccc2)[C@H]1O [Example 20, (7S,8R,9R)-8-Hydroxy-7-(2-methoxyethoxy)-6-methoxymethyl-2,3-dimethyl-9-phenyl-7,8,9,10-tetrahydroimidazo[1,2-h][1,7]naphthyridine]",158 to 160 °C (dec.)
4,"COCc1cn2c(C)c(C)nc2c2c1[C@H](O)[C@H](O)[C@@H](c1ccccc1)N2 [Example 15, (7S,8R,9R)-7,8-Dihydroxy-6-methoxymethyl-2,3-dimethyl-9-phenyl-7,8,9,10-tetrahydroimidazo[1,2-h][1,7]naphthyridine]",182 to 183 °C (dec.)
5,"CCO[C@@H]1c2c(COC)cn3c(C)c(C)nc3c2N[C@H](c2ccccc2)[C@H]1O [Example 21, (7R,8R,9R)-8-Hydroxy-7-ethoxy-6-methoxymethyl-2,3-dimethyl-9-phenyl-7,8,9,10-tetrahydroimidazo[1,2-h][1,7]naphthyridine]",184 to 186 °C (dec.)
6,"COCCO[C@@H]1c2c(COC)cn3c(C)c(C)nc3c2N[C@H](c2ccccc2)[C@H]1O [Example 19, (7R,8R,9R)-8-Hydroxy-7-(2-methoxyethoxy)-6-methoxymethyl-2,3-dimethyl-9-phenyl-7,8,9,10-tetrahydroimidazo[1,2-h][1,7]naphthyridine]",158 to 160 °C
